Source: patent US12624018B1, “Inhibitors of RIPK2 and medical uses thereof” (Odyssey Therapeutics, Inc., priority 2022, dated 2026)

Target: T1, RIPK2 enzyme (Homo sapiens, UniProt O43353)
T1 construct: purchased Carna 09-128
Assay: RIPK2 inhibition (ADP-Glo Kinase Assay)
Format: biochemical
Conditions: RIPK2 5 nM, ATP 150 μM, MBP substrate, read-out: RIPK2 IC50
Method: RIPK2 inhibition was measured as follows:
The V9102 ADP-Glo Kinase Assay (including ultrapure ATP, 10 mM) was purchased from Promega. Native swine MBP was used as the substrate for the reaction and was purchased from SignalChem Biotech (catalogue number M42-51N). Assay buffer used for the assay consisted of the following components: MgCl2 (final concentration of 10 mM), Brij-35 (0.01%), DTT (final concentration of 2 mM), BSA (0.05%), EGTA (final concentration of 1 mM), and HEPE (pH 7.5 at final concentration of 50 mM).
Method: In a 384 well plate, 10 nL of test compound was dispensed using Echo550 and mixed with RIPK2 enzyme (final concentration of 5 nM) in assay buffer for 30 minutes at room temperature. […] Then ADP-Glo reagent was added and incubated for 60 min at room temperature. Last, Kinase Detection Reagent was added to the mixture and incubated for 60 min. The resulting luminescent signal was measured with an Envision reader to determine the amount of ADP produced. All plates contained vehicle controls (10 nL DMSO only) as a reference for the high control (0% kinase inhibition), and wells with no RIPK2 enzyme as reference for low control (100% kinase inhibition). Data were analyzed to determine the percent inhibition of ADP production in the presence of test compound using both low and high controls.

T1 sequence (O43353 1-299 limits assumed): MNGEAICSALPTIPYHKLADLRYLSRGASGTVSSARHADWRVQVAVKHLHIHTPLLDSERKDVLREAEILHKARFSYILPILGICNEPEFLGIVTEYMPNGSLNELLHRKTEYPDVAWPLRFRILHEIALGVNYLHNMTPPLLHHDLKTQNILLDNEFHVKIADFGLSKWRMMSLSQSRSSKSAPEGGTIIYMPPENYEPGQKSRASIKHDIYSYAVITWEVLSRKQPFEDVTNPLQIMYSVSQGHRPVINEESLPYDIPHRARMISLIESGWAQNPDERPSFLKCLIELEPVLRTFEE

IC50 [nM] | SMILES
< 2.5 | Cc1c(Oc2ccnc3ccc(C(=O)N4CCC(N)C4)cc23)ccc(CC(=O)Nc2cnn(C(C)(C)C)c2)c1F (single isomer, unassigned) [Compound 354, 2-(4-((6-(3-amino-pyrrolidine-1-carbonyl)quinolin-4-yl)oxy)-2-fluoro-3-methyl-phenyl)-N-(1-(tert-butyl)-1H-pyrazol-4-yl)acetamide]
< 2.5 | Cc1cc(CC(=O)Nc2cnn(C(C)(C)C)c2)c(F)cc1Oc1ccnc2ccc(C(=O)N3CCC(O)C3)cc12 (single isomer, unassigned) [Compound 375, N-(1-(tert-butyl)-1H-pyrazol-4-yl)-2-(2-fluoro-4-((6-(3-hydroxy-pyrrolidine-1-carbonyl)quinolin-4-yl)oxy)-5-methyl-phenyl) acetamide]
< 2.5 | Cc1cc(CC(=O)Nc2cnn(C(C)(C)C)c2)c(F)cc1Oc1ccnc2ccc(C(=O)N3CCC(O)C3)cc12 (single isomer, unassigned) [Compound 376, N-(1-(tert-butyl)-1H-pyrazol-4-yl)-2-(2-fluoro-4-((6-(3-hydroxy-pyrrolidine-1-carbonyl)quinolin-4-yl)oxy)-5-methylphenyl) acetamide]
< 2.5 | Cc1cc(CC(=O)Nc2cnn(C(C)(C)C)c2)c(F)cc1Oc1ccnc2ccc(C(=O)NC3CC(C#N)C3)cc12 (single isomer, unassigned) [Compound 395, 4-(4-(2-((1-(tert-butyl)-1H-pyrazol-4-yl)amino)-2-oxoethyl)-5-fluoro-2-methyl-phenoxy)-N-(-3-cyano-cyclobutyl) quinoline-6-carboxamide]
< 2.5 | Cc1cc(CC(=O)Nc2cnn(C(C)(C)C)c2)c(F)cc1Oc1ccnc2ccc(C(=O)NC3CC(C#N)C3)cc12 (single isomer, unassigned) [Compound 396, 4-(4-(2-((1-(tert-butyl)-1H-pyrazol-4-yl)amino)-2-oxoethyl)-5-fluoro-2-methyl-phenoxy)-N-(-3-cyano-cyclobutyl) quinoline-6-carboxamide]
< 2.5 | Cc1c(Oc2ccnc3ccc(C(=O)NC4CC(C#N)C4)cc23)ccc(CC(=O)Nc2cnn(C(C)(C)C)c2)c1F (single isomer, unassigned) [Compound 403, 4-(4-(2-((1-(tert-butyl)-1H-pyrazol-4-yl)amino)-2-oxoethyl)-3-fluoro-2-methyl-phenoxy)-N-(-3-cyano-cyclobutyl) quinoline-6-carboxamide]
< 2.5 | Cc1c(Oc2ccnc3ccc(C(=O)NC4CC(C#N)C4)cc23)ccc(CC(=O)Nc2cnn(C(C)(C)C)c2)c1F (single isomer, unassigned) [Compound 404, 4-(4-(2-((1-(tert-butyl)-1H-pyrazol-4-yl)amino)-2-oxoethyl)-3-fluoro-2-methyl-phenoxy)-N-(-3-cyano-cyclobutyl) quinoline-6-carboxamide]
5.6 | COc1ccc2nccc(Oc3ccc(CC(=O)Nc4cnn(C(C)(C)C)c4)c(F)c3)c2c1 [Compound 1, N-(1-(tert-butyl)-1H-pyrazol-4-yl)-2-(2-fluoro-4-((6-methoxy-quinolin-4-yl)oxy)phenyl) acetamide]
< 2.5 | COc1cc2ncnc(Oc3ccc(CC(=O)Nc4cnn(C(C)(C)C)c4)c(F)c3)c2cc1S(=O)(=O)C(C)(C)C [Compound 2, N-(1-(tert-butyl)-1H-pyrazol-4-yl)-2-(4-((6-(tert-butylsulfonyl)-7-methoxyquinazolin-4-yl)oxy)-2-fluorophenyl)acetamide]
< 2.5 | COc1cc2nccc(Oc3ccc(CC(=O)Nc4cnn(C(C)(C)C)c4)c(F)c3)c2cc1S(=O)(=O)C(C)(C)C [Compound 3, N-(1-(tert-butyl)-1H-pyrazol-4-yl)-2-(4-((6-(tert-butylsulfonyl)-7-methoxyquinolin-4-yl)oxy)-2-fluorophenyl)acetamide]
61.9 | CC(C)(C)n1cc(NC(=O)Cc2ncc(Oc3ccnc4ccc(F)cc34)cn2)cn1 [Compound 4]
99.7 | CC(C)(C)n1cc(NC(=O)Cc2ncc(Oc3ncnc4ccc(F)cc34)cc2F)cn1 [Compound 5, N-(1-(tert-butyl)-1H-pyrazol-4-yl)-2-(3-fluoro-5-((6-fluoroquinazolin-4-yl)oxy)pyridin-2-yl)acetamide]
9 | COc1ccc2nccc(Oc3cnc(CC(=O)Nc4cnn(C(C)(C)C)c4)c(F)c3)c2c1 [Compound 6, N-(1-(tert-butyl)-1H-pyrazol-4-yl)-2-(3-fluoro-5-((6-methoxyquinolin-4-yl)oxy)pyridin-2-yl)acetamide]
24 | CC(C)(C)n1cc(NC(=O)Cc2ncc(Oc3ncnc4ccc(Cl)cc34)cc2F)cn1 [Compound 7, N-(1-(tert-butyl)-1H-pyrazol-4-yl)-2-(5-((6-chloroquinazolin-4-yl)oxy)-3-fluoro-pyridin-2-yl)acetamide]
21.8 | COc1ccc2ncnc(Oc3cnc(CC(=O)Nc4cnn(C(C)(C)C)c4)c(F)c3)c2c1 [Compound 9, N-(1-(tert-butyl)-1H-pyrazol-4-yl)-2-(3-fluoro-5-((6-methoxyquinazolin-4-yl)oxy)pyridin-2-yl)acetamide]
43.5 | COc1ccc2ncnc(Oc3cnc(CC(=O)Nc4cnn(C(C)(C)C)c4)c(Cl)c3)c2c1 [Compound 10, N-(1-(tert-butyl)-1H-pyrazol-4-yl)-2-(3-chloro-5-((6-methoxyquinazolin-4-yl)oxy)pyridin-2-yl)acetamide]
11.6 | COc1ccc2ncnc(Oc3cnc(CC(=O)Nc4cc(C(C)(C)C)[nH]n4)c(F)c3)c2c1 [Compound 12, N-(5-(tert-butyl)-1H-pyrazol-3-yl)-2-(3-fluoro-5-((6-methoxyquinazolin-4-yl)oxy)pyridin-2-yl)acetamide]
3.5 | COc1ccc2nccc(Oc3cnc(CC(=O)Nc4cc(C(C)(C)C)[nH]n4)c(F)c3)c2c1 [Compound 13, N-(5-(tert-butyl)-1H-pyrazol-3-yl)-2-(3-fluoro-5-((6-methoxyquinolin-4-yl)oxy)pyridin-2-yl)acetamide]
23.7 | CC(C)(C)n1cc(NC(=O)Cc2ccc(Oc3ncnc4ccc(N5CCOCC5)cc34)cc2F)cn1 [Compound 14, N-(1-(tert-butyl)-1H-pyrazol-4-yl)-2-(2-fluoro-4-((6-morpholinoquinazolin-4-yl)oxy)phenyl)acetamide]
34.9 | COc1ccc2ncnc(Oc3ccc(CC(=O)Nc4cc(C(C)(C)CO)[nH]n4)c(F)c3)c2c1 [Compound 15, 2-(2-fluoro-4-((6-methoxy-quinazolin-4-yl)oxy)phenyl)-N-(5-(1-hydroxy-2-methylpropan-2-yl)-1H-pyrazol-3-yl)acetamide]
9.3 | CC(C)(C)n1cc(NC(=O)Cc2ccc(Oc3ncnc4ccc(OCCO)cc34)cc2F)cn1 [Compound 16, N-(1-(tert-butyl)-1H-pyrazol-4-yl)-2-(2-fluoro-4-((6-(2-hydroxyethoxy)quinazolin-4-yl)oxy)phenyl)acetamide]
27.4 | CC(C)(C)n1cc(NC(=O)Cc2ccc(Oc3ncnc4ccc(OCCN5CCCC5)cc34)cc2F)cn1 [Compound 17, N-(1-(tert-butyl)-1H-pyrazol-4-yl)-2-(2-fluoro-4-((6-(2-(pyrrolidin-1-yl)ethoxy)quinazolin-4-yl)oxy)phenyl) acetamide]
7.9 | CN1CC(Oc2ccc3ncnc(Oc4ccc(CC(=O)Nc5cnn(C(C)(C)C)c5)c(F)c4)c3c2)C1 [Compound 18, N-(1-(tert-butyl)-1H-pyrazol-4-yl)-2-(2-fluoro-4-((6-((1-methyl-azetidin-3-yl)oxy)quinazolin-4-yl)oxy)phenyl) acetamide]
4.2 | CN1CCC(Oc2ccc3ncnc(Oc4ccc(CC(=O)Nc5cnn(C(C)(C)C)c5)c(F)c4)c3c2)CC1 [Compound 19, N-(1-(tert-butyl)-1H-pyrazol-4-yl)-2-(2-fluoro-4-((6-((1-methyl-piperidin-4-yl)oxy)quinazolin-4-yl)oxy)phenyl) acetamide]
36.6 | CC(C)(C)c1ccnc(NC(=O)Cc2ccc(Oc3ncnc4ccc(F)cc34)cc2F)c1 [Compound 21, N-(4-(tert-butyl)pyridin-2-yl)-2-(2-fluoro-4-((6-fluoroquinazolin-4-yl)oxy)phenyl) acetamide]
23.9 | CC(C)c1ccnc(NC(=O)Cc2ccc(Oc3ncnc4ccc(F)cc34)cc2F)c1 [Compound 22, 2-(2-fluoro-4-((6-fluoroquinazolin-4-yl)oxy)phenyl)-N-(4-isopropylpyridin-2-yl)acetamide]
14.4 | COc1ccc2ncnc(Oc3ccc(CC(=O)Nc4noc(C(C)(C)C)n4)c(F)c3)c2c1 [Compound 23, N-(5-(tert-butyl)-1,2,4-oxadiazol-3-yl)-2-(2-fluoro-4-((6-methoxy-quinazolin-4-yl)oxy)phenyl) acetamide]
7.4 | CC(C)(C)n1cc(NC(=O)Cc2ccc(Oc3ncnc4ccc(C(N)=O)cc34)cc2F)cn1 [Compound 24, 4-(4-(2-((1-(tert-butyl)-1H-pyrazol-4-yl)amino)-2-oxoethyl)-3-fluoro-phenoxy) quinazoline-6-carboxamide]
4.3 | CNC(=O)c1ccc2ncnc(Oc3ccc(CC(=O)Nc4cnn(C(C)(C)C)c4)c(F)c3)c2c1 [Compound 25, 4-(4-(2-((1-(tert-butyl)-1H-pyrazol-4-yl)amino)-2-oxoethyl)-3-fluoro-phenoxy)-N-methyl-quinazoline-6-carboxamide]
